Measurements as given in patent US20260365641A1, “Aromatic Acetylene Derivative, Preparation Method Therefor, And Use Thereof” (Zhejiang Hisun Pharmaceutical Co., Ltd., priority 2022, published 2026).
Converted amounts (≈) assume the structure as drawn.

Legend:
E. coli ATCC 25922 = test: Antibacterial activity, minimum inhibitory concentration (MIC) in vitro, broth dilution; assay type: cell-based; conditions: Escherichia coli, ATCC25922, 5×10^5 cfu/mL, 35 °C, 18-24 hours
Summary of the method: (§1)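 Broth microdilution per CLSI in CAMHB, inoculum 5×10^5 cfu/mL. Compound added from 100× DMSO working stocks across 11 two-fold dilutions, final 64 to 0.06 μg/mL. Incubated 18-24 h at 35 °C.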

K. pneumoniae ATCC13883 = test: as above; assay type: cell-based; conditions: Klebsiella pneumoniae, 5×10^5 cfu/mL, 35 °C, 18-24 hours
Summary of the method: as §1

K. pneumoniae ATCC51504 = test: as above; assay type: cell-based; conditions: Klebsiella pneumoniae, 5×10^5 cfu/mL, 35 °C, 18-24 hours
Summary of the method: as §1

[1] = molecular target: T1, recombinant Pseudomonas aeruginosa LpxC (Pseudomonas aeruginosa, UniProt P47205); test: Inhibition of enzymatic activity of recombinant Pseudomonas aeruginosa LpxC in vitro; assay type: biochemical; conditions: 5 nM LpxC; substrate UDP-3-O—(R-3-hydroxydecanoyl)-GlcNAc; 25 °C, 120 minutes; fluorescamine readout
T1 construct: purchased Signalway Antibody AP74647-2
T1 sequence (P47205 1-303): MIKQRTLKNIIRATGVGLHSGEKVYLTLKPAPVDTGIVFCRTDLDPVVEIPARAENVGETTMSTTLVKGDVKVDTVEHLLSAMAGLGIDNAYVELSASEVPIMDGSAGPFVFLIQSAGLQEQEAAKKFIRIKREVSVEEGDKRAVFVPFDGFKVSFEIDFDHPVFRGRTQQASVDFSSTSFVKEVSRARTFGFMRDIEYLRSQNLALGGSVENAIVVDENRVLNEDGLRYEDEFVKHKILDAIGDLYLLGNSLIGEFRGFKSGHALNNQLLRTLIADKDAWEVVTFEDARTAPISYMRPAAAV
Summary of the method: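 LpxC (5 nM final) was incubated with compound (8-point 4-fold series, 0.61–10000 nM) and […] UDP-3-O-(R-3-hydroxydecanoyl)-GlcNAc for 120 min at 25 °C. Product was detected with fluorescamine (Ex 390/Em 495 nm) after a pH 8.0 phosphate stop. IC50 was fitted by nonlinear regression against 0.1% DMSO control.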

SMILES | MIC (E. coli ATCC 25922) [µg/mL] | MIC (K. pneumoniae ATCC13883) [µg/mL] | MIC (K. pneumoniae ATCC51504) [µg/mL] | IC50 [1] [nM]
C[C@H](O)c1nccn1Cc1cc(-c2ccc(C#CC3CC4(C3)CN(Cc3ncco3)C4)cc2)on1 [Example 52, (S)-1-(1-((5-(4-((2-(oxazol-2-ylmethyl)-2-azaspiro[3.3]heptan-6-yl)ethynyl)phenyl)isoxazol-3-yl)methyl)-1H-imidazol-2-yl)ethan-1-ol] | 1 (≈ 2.13 µM) | 2 (≈ 4.26 µM) | 1 (≈ 2.13 µM) | 13.9
C[C@H](O)c1nccn1Cc1cc(-c2ccc(C#CC3CC4(C3)CN(CCn3cncn3)C4)cc2)on1 [Example 53, (S)-1-(1-((5-(4-((2-(2-(1H-1,2,4-triazol-1-yl)ethyl)-2-azaspiro[3.3]heptan-6-yl)ethynyl)phenyl)isoxazol-3-yl)methyl)-1H-imidazol-2-yl)ethan-1-ol] | 2 (≈ 4.14 µM) | 8 (≈ 16.5 µM) | 2 (≈ 4.14 µM) | –
C[C@H](O)c1nccn1Cc1cc(-c2ccc(C#CC3CC4(CCN(C=O)CC4)C3)cc2)on1 [Example 17, (S)-2-((4-(3-((2-(1-hydroxyethyl)-1H-imidazol-1-yl)methyl)isoxazol-5-yl)phenyl)ethynyl)-7-azaspiro[3.5]nonane-7-carbaldehyde] | 1 (≈ 2.25 µM) | 2 (≈ 4.5 µM) | – | 8.32
C[C@H](O)c1nccn1Cc1cc(-c2ccc(C#CC3CC4(CCN(C(=O)CC#N)CC4)C3)cc2)on1 [Example 29, (S)-3-(2-((4-(3-((2-(1-hydroxyethyl)-1H-imidazol-1-yl)methyl)isoxazol-5-yl)phenyl)ethynyl)-7-azaspiro[3.5]nonan-7-yl)-3-oxopropanenitrile] | 2 (≈ 4.14 µM) | 4 (≈ 8.27 µM) | – | 6.17
C[C@H](O)c1nccn1Cc1cc(-c2ccc(C#CC3CC4(C3)CN(C(=O)CO)C4)cc2)on1 [Example 26, (S)-2-hydroxy-1-(6-((4-(3-((2-(1-hydroxyethyl)-1H-imidazol-1-yl)methyl)isoxazol-5-yl)phenyl)ethynyl)-2-azaspiro[3.3]heptan-2-yl)ethan-1-one] | 2 (≈ 4.48 µM) | 2 (≈ 4.48 µM) | – | 11.3
C[C@H](O)c1nccn1Cc1cc(-c2ccc(C#CC3CC4(C3)CN(C=O)C4)cc2)on1 [Example 22, (S)-6-((4-(3-((2-(1-hydroxyethyl)-1H-imidazol-1-yl)methyl)isoxazol-5-yl)phenyl)ethynyl)-2-azaspiro[3.3]heptane-2-carbaldehyde] | 1 (≈ 2.4 µM) | 4 (≈ 9.6 µM) | – | 6.54
